Measurements: patent EP0991643B1 (SCHERING CORPORATION, priority 1997, dated 1998)

Target: T1, partially purified rat brain farnesyl protein transferase (FPT) (Rattus norvegicus, UniProt Q02293+Q04631)
T1 construct: partially purified rat brain farnesyl protein transferase (FPT); from tissue; host or cells: rat brain
Assay: In vitro enzyme assay: inhibition of Ras-CVLS farnesylation by farnesyl protein transferase (FPT)
Type: biochemical
Conditions: H-ras (Ras-CVLS) substrate; methods of WO 95/10515 or WO 95/10516
Protocol: (§1) 1. In vitro enzyme assays: FPT IC50 (inhibition of farnesyl protein transferase, in vitro enzyme assay) are determined by the methods disclosed in […] or WO 95/10516. […] 2. Cell-based assay. COS IC50 values refer to the COS cells activity inhibition of Ras processing, are determined by the methods disclosed in […] or WO 95/10516.

T1 sequence (Q02293 whole entry, one chain of several): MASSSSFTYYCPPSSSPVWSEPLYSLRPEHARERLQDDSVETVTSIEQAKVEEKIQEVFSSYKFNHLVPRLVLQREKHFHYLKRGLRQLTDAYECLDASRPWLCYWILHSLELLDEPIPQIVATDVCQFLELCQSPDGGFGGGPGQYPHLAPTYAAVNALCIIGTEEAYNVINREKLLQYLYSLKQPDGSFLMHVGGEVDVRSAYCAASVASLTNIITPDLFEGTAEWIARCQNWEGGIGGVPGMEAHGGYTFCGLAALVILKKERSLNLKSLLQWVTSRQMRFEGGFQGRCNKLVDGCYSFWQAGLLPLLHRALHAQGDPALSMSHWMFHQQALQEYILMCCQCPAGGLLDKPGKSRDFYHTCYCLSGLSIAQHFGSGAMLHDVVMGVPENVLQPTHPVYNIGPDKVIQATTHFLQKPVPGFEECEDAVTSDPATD

Compared with `CC(C)=NOCC(=O)N1CCC([C@H]2c3ncc(Br)cc3CCc3cc(Cl)cc(Br)c32)CC1` [Example 2], `CC(C)=NOCCC(=O)N1CCC([C@H]2c3ncc(Br)cc3CCc3cc(Cl)cc(Br)c32)CC1` [Example 4, (+)-4-(3,10-dibromo-8-chloro-6,11-dihydro-5H-benzo[5,6]cyclohepta[1,2-b]pyridin-11(R)-yl)-1-[3-[[(1-methylethylidene]amino]oxy]-1-oxopropyl]piperidine] is 8.3-fold higher in IC50: 6.5 nM for the first, 54 nM for the second.

Compared with `COc1ccc(/C(C)=N/OCC(=O)N2CCC([C@H]3c4ncc(Br)cc4CCc4cc(Cl)cc(Br)c43)CC2)cc1` [Example 3], `C/C(=N\OCC(=O)N1CCC([C@H]2c3ncc(Br)cc3CCc3cc(Cl)cc(Br)c32)CC1)c1ccc(Cl)cc1` [Example 8, (+)-1-[[[[(E)-1-(4-chlorophenyl)ethylidene]amino]oxy]acetyl]-4-(3,10-dibromo-8-chloro-6,11-dihydro-5H-benzo[5,6]cyclohepta[1,2-b]pyridin-11(R)-yl)piperidine] is higher in IC50: 180 nM for the first, over 180 nM for the second.

Going from `CC(C)(C)OC(=O)NOCC(=O)N1CCC([C@H]2c3ncc(Br)cc3CCc3cc(Cl)cc(Br)c32)CC1` [Example 5, (+)-1,1-Dimethylethyl-N-[2-[4-(3,10-dibromo-8-chloro-6,11-dihydro-5H-benzo[5,6]cyclohepta[1,2-b]pyridin-11(R)-yl)-1-piperidinyl]-2-oxoethoxy]carbamate] to `CC(=O)NOCC(=O)N1CCC([C@H]2c3ncc(Br)cc3CCc3cc(Cl)cc(Br)c32)CC1` [Example 14, (+)-N-[2-[4-(3,10-dibromo-8-chloro-6,11-dihydro-5H-benzo[5,6]cyclohepta[1,2-b]pyridin-11(R)-yl)-1-piperidinyl]-2-oxoethoxy]acetamide], the IC50 falls from 170 nM to 31 nM (5.5-fold). The second is the more potent here.

Going from `O=C(CO/N=C/c1cc[n+]([O-])cc1)N1CCC([C@H]2c3ncc(Br)cc3CCc3cc(Cl)cc(Br)c32)CC1` [Example 6] to `O=C(CO/N=C/c1ccccc1O)N1CCC([C@H]2c3ncc(Br)cc3CCc3cc(Cl)cc(Br)c32)CC1` [Example 7], the IC50 rises from 3.6 nM to 370 nM (100-fold). The first is the more potent here.

Compared with `C/C(=N\OCC(=O)N1CCC([C@H]2c3ncc(Br)cc3CCc3cc(Cl)cc(Br)c32)CC1)c1cccs1` [Example 9, (+)-4-(3,10-dibromo-8-chloro-6,11-dihydro-5H-benzo[5,6]cyclohepta[1,2-b]pyridin-11(R)-yl)-1-[[[[(E)-1-(2-thienyl)ethylidene]amino]oxy]acetyl]piperidine], `O=C(CON=C1CCSCC1)N1CCC([C@H]2c3ncc(Br)cc3CCc3cc(Cl)cc(Br)c32)CC1` [Example 13] is 12-fold lower in IC50: 150 nM for the first, 13 nM for the second. The second is the more potent here.

Compared with `O=C(CON=C1CCCCC1)N1CCC([C@H]2c3ncc(Br)cc3CCc3cc(Cl)cc(Br)c32)CC1` [Example 10, (+)-4-(3,10-dibromo-8-chloro-6,11-dihydro-5H-benzo[5,6]cyclohepta[1,2-b]pyridin-11(R)-yl)-1-[[[[(cyclohexylidene]amino]]oxy]acetyl]piperidine], `O=C(CON=C1CCOCC1)N1CCC([C@H]2c3ncc(Br)cc3CCc3cc(Cl)cc(Br)c32)CC1` [Example 12] is 2.9-fold lower in IC50: 35 nM for the first, 12 nM for the second. The second is the more potent here.

`O=C(CON=C1CCC2(CC1)OCCO2)N1CCC([C@H]2c3ncc(Br)cc3CCc3cc(Cl)cc(Br)c32)CC1` [Example 11] was tested, and the IC50 was 24 nM.

Tested on: Ras processing in COS cells
Assay: Cell-based assay: inhibition of Ras processing in COS cells
Conditions: not given
Protocol: as §1

In the case of `O=C(CO/N=C/c1cc[n+]([O-])cc1)N1CCC([C@H]2c3ncc(Br)cc3CCc3cc(Cl)cc(Br)c32)CC1` [Example 6], the IC50 is reported as 690 nM.
